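1) Cells in 96-well plates. 2) Compound, 48 h, 5 concentrations. 3) Linear interpolation between surrounding doses. 4) Unreached endpoint = highest concentration. GI50: concentration for 50% inhibition of growth.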 Calls of active or inactive are those of the source. Rule as the data show it: active = GI50 up to about 1.1 µM and inactive = higher.
Experiments:
Test in all cases: NCI-60 cell line screen, 48 h
ACHN = test system: ACHN
SK-OV-3 = test system: SK-OV-3
SF-539 = test system: SF-539
NCI-H23 = test system: NCI-H23
OVCAR-4 = test system: OVCAR-4
RPMI-8226 = test system: RPMI-8226
SR = test system: SR
COLO 205 = test system: COLO 205
MDA-MB-231 = test system: MDA-MB-231
A549 = test system: A549
HCT-15 = test system: HCT-15
SN12C = test system: SN12C
HOP-92 = test system: HOP-92
A498 = test system: A498
Malme-3M = test system: Malme-3M
HL-60 = test system: HL-60
SNB-19 = test system: SNB-19
KM12 = test system: KM12
OVCAR-3 = test system: OVCAR-3
MOLT-4 = test system: MOLT-4

| SMILES | GI50 (ACHN) | GI50 (SK-OV-3) | GI50 (SF-539) | GI50 (NCI-H23) | GI50 (OVCAR-4) | GI50 (RPMI-8226) | GI50 (SR) | GI50 (COLO 205) | GI50 (MDA-MB-231) | GI50 (A549) | GI50 (HCT-15) [µM] | GI50 (SN12C) | GI50 (HOP-92) | GI50 (A498) | GI50 (Malme-3M) | GI50 (HL-60) | GI50 (SNB-19) | GI50 (KM12) | GI50 (OVCAR-3) | GI50 (MOLT-4) |
| --- | --- | --- | --- | --- | --- | --- | --- | --- | --- | --- | --- | --- | --- | --- | --- | --- | --- | --- | --- | --- |
| OC1CC2CCCN(CCc3c1[nH]c1ccccc31)C2 (centres undefined) | > 100 µM (inactive) | > 100 µM (inactive) | > 100 µM (inactive) | > 100 µM (inactive) | > 100 µM (inactive) | > 100 µM (inactive) | 97.1 µM (inactive) | > 100 µM (inactive) | 89.3 µM (inactive) | > 100 µM (inactive) | > 100 | > 100 µM (inactive) | > 100 µM (inactive) | > 100 µM (inactive) | > 100 µM (inactive) | > 100 µM (inactive) | > 100 µM (inactive) | > 100 µM (inactive) | – | – |
| COc1ccc(OC)c(-c2cc(=O)c3c(OC)c(OC)c(OC)c(OC)c3o2)c1 | 20.7 µM (inactive) | 22.8 µM (inactive) | 41.1 µM (inactive) | 30.1 µM (inactive) | 20 µM (inactive) | 21.5 µM (inactive) | 6.17 µM (inactive) | 17.1 µM (inactive) | 40.2 µM (inactive) | 28.5 µM (inactive) | 21.3 | 27.9 µM (inactive) | 11.7 µM (inactive) | 36.1 µM (inactive) | 24.3 µM (inactive) | 14.2 µM (inactive) | 34.4 µM (inactive) | – | 23 µM (inactive) | 9.44 µM (inactive) |
| Cn1c(=O)c2nc(CCCCc3nc4ccccc4[nH]3)[nH]c2n(C)c1=O | > 100 µM (inactive) | > 100 µM (inactive) | 17 µM (inactive) | > 100 µM (inactive) | > 100 µM (inactive) | > 100 µM (inactive) | > 100 µM (inactive) | > 100 µM (inactive) | > 100 µM (inactive) | > 100 µM (inactive) | > 100 | > 100 µM (inactive) | 21.4 µM (inactive) | > 100 µM (inactive) | > 100 µM (inactive) | > 100 µM (inactive) | > 100 µM (inactive) | > 100 µM (inactive) | > 100 µM (inactive) | > 100 µM (inactive) |
| CC(C)OC(=O)c1ccc(CCc2cc(O)c(Br)cc2O)cc1 | 18 µM (inactive) | 16.6 µM (inactive) | 7.36 µM (inactive) | 8.85 µM (inactive) | 2.31 µM (inactive) | 2.72 µM (inactive) | 23.7 µM (inactive) | 15.2 µM (inactive) | 12 µM (inactive) | 20.3 µM (inactive) | 6.18 | 13.4 µM (inactive) | 20.9 µM (inactive) | 21 µM (inactive) | 17.2 µM (inactive) | 5.85 µM (inactive) | 14.8 µM (inactive) | 6.56 µM (inactive) | 8.11 µM (inactive) | 7.94 µM (inactive) |
| COc1cc(/C=[N+](\[O-])c2ccccc2Cl)ccc1OC(=S)S | 34 µM (inactive) | 43.9 µM (inactive) | 68.7 µM (inactive) | 28.5 µM (inactive) | 3.01 µM (inactive) | 29.2 µM (inactive) | 26.1 µM (inactive) | 21.8 µM (inactive) | 53.3 µM (inactive) | 39.8 µM (inactive) | 33.2 | 45.7 µM (inactive) | 10.1 µM (inactive) | 18.9 µM (inactive) | 38.4 µM (inactive) | 20.1 µM (inactive) | 55.1 µM (inactive) | 15.1 µM (inactive) | 30.8 µM (inactive) | 27 µM (inactive) |
| CCOC(=O)c1cc(C#N)[nH]c1-c1ccsc1 | 39.5 µM (inactive) | 43.8 µM (inactive) | 28.6 µM (inactive) | 35.5 µM (inactive) | 35.6 µM (inactive) | 23.6 µM (inactive) | 11.8 µM (inactive) | 32.2 µM (inactive) | 41.6 µM (inactive) | 31.7 µM (inactive) | 29.1 | 54.7 µM (inactive) | 38.6 µM (inactive) | 42.7 µM (inactive) | 37.4 µM (inactive) | 16.4 µM (inactive) | 56.1 µM (inactive) | 25.1 µM (inactive) | 31 µM (inactive) | 15.3 µM (inactive) |
| CCC[C@H](C)[C@H]1NC(=O)[C@@H](NC(=O)[C@@H](CC(C)C)N(C)C(=O)C2CCCN2C(=O)[C@H](C)O)[C@@H](C)OC(=O)[C@H](CC(C)C)N(C)C(=O)[C@@H]2CCCN2C(=O)[C@H](CC(C)C)NC(=O)[C@@H](C)C(=O)[C@H](C(C)C)OC(=O)C[C@@H]1O (some centres undefined) | < 0.0025 µM (active) | < 0.0025 µM (active) | < 0.0025 µM (active) | < 0.0025 µM (active) | < 0.0025 µM (active) | < 0.0025 µM (active) | < 0.0025 µM (active) | < 0.0025 µM (active) | < 0.0025 µM (active) | < 0.0025 µM (active) | 0.0328 | < 0.0025 µM (active) | < 0.0025 µM (active) | 0.0115 µM (active) | < 0.0025 µM (active) | < 0.0025 µM (active) | < 0.0025 µM (active) | < 0.0025 µM (active) | < 0.0025 µM (active) | < 0.0025 µM (active) |
| CC1=NN(c2cccc(Cl)c2)C2(SCC(=O)N2c2nc3ccccc3s2)/C1=C\c1ccc(Cl)cc1 (centres undefined) | 19.2 µM (inactive) | 21.5 µM (inactive) | 26.2 µM (inactive) | 18.4 µM (inactive) | 17.3 µM (inactive) | 15.6 µM (inactive) | 2.81 µM (inactive) | – | 25.5 µM (inactive) | – | 13.9 | – | 13.4 µM (inactive) | 17.3 µM (inactive) | – | 11.8 µM (inactive) | – | 15.4 µM (inactive) | 16.8 µM (inactive) | 4.34 µM (inactive) |
| Cn1c2c(c3ccccc31)CCN1C(=O)CCC21 (centres undefined) | > 10 µM (inactive) | > 10 µM (inactive) | > 10 µM (inactive) | > 10 µM (inactive) | > 10 µM (inactive) | > 10 µM (inactive) | > 10 µM (inactive) | > 10 µM (inactive) | > 10 µM (inactive) | – | > 10 | > 10 µM (inactive) | > 10 µM (inactive) | > 10 µM (inactive) | > 10 µM (inactive) | > 10 µM (inactive) | > 10 µM (inactive) | > 10 µM (inactive) | > 10 µM (inactive) | > 10 µM (inactive) |
| C=CC1=C(C)c2cc3[nH]c(c4c5nc(cc6[nH]c(cc1n2)c(C)c6CC)C(C)=C5C(=O)[C@@H]4C(=O)OC)[C@@H](CCC(=O)O)[C@@H]3C | 2.27 µM (inactive) | 4.06 µM (inactive) | 1.86 µM (inactive) | 2.21 µM (inactive) | 2.54 µM (inactive) | 2 µM (inactive) | 0.634 µM (active) | 4.28 µM (inactive) | 11.2 µM (inactive) | 3.95 µM (inactive) | 2.49 | 5.45 µM (inactive) | 1.63 µM (inactive) | 2.55 µM (inactive) | 12.2 µM (inactive) | 1.37 µM (inactive) | 4.09 µM (inactive) | 4.83 µM (inactive) | 2.04 µM (inactive) | 1 µM (active) |
| C[C@]12CCC(=O)C=C1CC[C@@H]1[C@@H]2CC[C@]2(C)C(=O)[C@H](n3ccnc3)C[C@@H]12 | > 100 µM (inactive) | – | > 100 µM (inactive) | > 100 µM (inactive) | > 100 µM (inactive) | > 100 µM (inactive) | 74.1 µM (inactive) | > 100 µM (inactive) | > 100 µM (inactive) | > 100 µM (inactive) | > 100 | > 100 µM (inactive) | > 100 µM (inactive) | > 100 µM (inactive) | > 100 µM (inactive) | 21.9 µM (inactive) | > 100 µM (inactive) | > 100 µM (inactive) | – | 35.2 µM (inactive) |
| Cn1c([C@H](C#N)c2ncccc2[N+](=O)[O-])nc2ccccc21 | > 100 µM (inactive) | 32.8 µM (inactive) | 31.1 µM (inactive) | 59 µM (inactive) | – | > 100 µM (inactive) | > 100 µM (inactive) | – | > 100 µM (inactive) | 83.9 µM (inactive) | > 100 | – | 89.1 µM (inactive) | > 100 µM (inactive) | 83.2 µM (inactive) | > 100 µM (inactive) | 50 µM (inactive) | > 100 µM (inactive) | > 100 µM (inactive) | > 100 µM (inactive) |
| CC(=O)/C=c1\[nH]/c(=C\C=C\c2ccccc2)c(=O)n1/C=C1\C(=O)Oc2ccccc2C1=O | > 100 µM (inactive) | > 100 µM (inactive) | > 100 µM (inactive) | > 100 µM (inactive) | > 100 µM (inactive) | > 100 µM (inactive) | > 100 µM (inactive) | > 100 µM (inactive) | > 100 µM (inactive) | > 100 µM (inactive) | > 100 | – | > 100 µM (inactive) | 15.3 µM (inactive) | > 100 µM (inactive) | > 100 µM (inactive) | > 100 µM (inactive) | > 100 µM (inactive) | > 100 µM (inactive) | > 100 µM (inactive) |
| CN(C)CCn1c(=O)c2ccc(NCCCN(C)CCCNc3ccc4c(=O)n(CCN(C)C)c(=O)n5c6ccc(O)cc6c(=O)c3c45)c3c(=O)c4cc(O)ccc4n(c1=O)c23 | < 0.01 µM (active) | – | < 0.01 µM (active) | < 0.01 µM (active) | < 0.01 µM (active) | < 0.01 µM (active) | < 0.01 µM (active) | < 0.01 µM (active) | < 0.0244 µM (active) | < 0.01 µM (active) | < 0.0173 | < 0.01 µM (active) | < 0.0201 µM (active) | 0.0289 µM (active) | 0.0659 µM (active) | 0.0342 µM (active) | < 0.01 µM (active) | < 0.01 µM (active) | 0.059 µM (active) | < 0.01 µM (active) |

Reference: ChEMBL document CHEMBL1201862, “PubChem BioAssay data set” (2004)
